# From publication PMC8802549 (The Journal of Immunology Author Choice, 2022)
# Where two headings read alike, the source gives them in different places.
# Assays:
# CTL 495 = assay: IFN-γ ELISPOT with Tp9-specific CTL line 495; format: cell-based, cattle; details: for IFN-γ ELISPOT stimulation of CTL 495, in words: Supplemental Fig. 1, minimal epitope peptides, relatively high peptide concentration; for IFN-γ ELISPOT response of CTL 495 vs Tp9_67–75 Muguga, in words: Fig. 3A, alanine/glycine-substituted peptides, 2.5 × 10^4 CD8+ cells/well, 20 h 37°C, reduced = SFU >15% lower than Tp9_67–75
# From the text: (§1) Autologous T. parva Muguga-infected lymphocyte (TpM) lines from animals BF092, 4003, and 495 and TpM-specific bulk CTLs lines after immunization by ITM were established as previously described ([37]). In brief, PBMCs harvested from immunized animals were stimulated at least three times, at weekly intervals, by coculturing with irradiated autologous T. parva–infected cells (TpMs) at a ratio of 5–10:1 (TpMs:PBMC) in RPMI media containing 15% T cell growth factor ([38]). Cells were maintained in RPMI 1640 culture medium (Sigma-Aldrich) containing 10% heat-inactivated FCS (Life Technologies), 2 mM L-glutamine (Sigma-Aldrich), 1 mg/ml gentamicin (Carl-Roth), 100 UI/ml penicillin (Sigma-Aldrich), 100 mg/ml streptomycin (Sigma-Aldrich), 2-ME (BDH, final concentration: 50 μM ([39]); a detailed description of our protocols can be found in Ref. [40]). The CTL lines from 4003 (A14 homozygous) and 495 (A10/A14 heterozygous) were propagated by stimulating them with cesium-137–irradiated autologous TpM (the use of radioisotope and irradiator was per institutional radiation safety guidelines; the length of exposure for inhibiting replication was empirically determined and found to be optimal with an exposure of 30 min at a distance of 10 cm of the cesium-137 source at 265 rad/min using a top linear irradiator [Conservatome, Lyon, France]), at a ratio of 1:5–10 (CTL:TpMs), and supplementing the media with 2 ng/ml recombinant human IL-2 (Sigma) or 15% T cell growth factor. Cells were incubated at 37°C in a 5% CO2 humidified atmosphere. Both CTLs recognize the Tp9 Ag. CTL clone 8 was derived from the CTL 495 by limiting dilution.
# IFN-γ ELISPOT assay was performed as previously described ([34]). In brief, a monoclonal anti-bovine IFN-γ Ab (cat # MCA1783; Serotec, Oxford, U.K.) was incubated overnight at 4°C on ELISPOT plates (cat # MAIPN4550; Millipore, Billerica, MA, USA) and then blocked with RPMI containing 10% heat-inactivated FCS for 2 h at 37°C. Peptides (purity: 95%; Mimotopes) were added at concentrations ranging from 0.1 to 1 μM and CD8^+ cells at 2.5 × 10^4 cells/well. The plates were incubated at 37°C for 20 h. Release of IFN-γ was monitored with primary rabbit polyclonal anti-bovine IFN-γ Ab (Sigma-Aldrich, St. Louis, MO, USA) and secondary alkaline phosphatase–conjugated monoclonal anti-rabbit IgG (cat # A2556; Sigma-Aldrich, St. Louis, MO). Development of plates was done by addition of the substrate solution Sigma Fast (BCIP/NBT, cat # B5655-25TAB; Sigma-Aldrich, St. Louis, MO). Plates were read using an automated ELISPOT reader (AID Classic ELISpot Reader).
# Statistical analyses of data were performed with GraphPad Prism version 6 software. To determine the Kd, binding, and half-life values, we performed a nonlinear regression curve fit (One-Site, Specific binding). […]
# [1] = tested on: BoLA-1*023:01 class I molecule; assay: Peptide–MHC class I binding assay (ELISA of p-MHC monomer folding); parameters: species or system bovine; details: for Peptide binding to BoLA-1*023:01 (folding in ELISA), in words: Fig. 1B, 10-mer and peptides with 1 or 2 aa deletions at N- or C-terminal end; for Kd: 25 nM BoLA-1*023:01, 150 nM bovine β2m, peptide 0–40 μM, 48 h 18°C, one-site specific binding fit, representative experiment, duplicates
# Experimental: Folding of p-MHC class I complexes was assessed with an ELISA assay as described by Svitek et al. ([34]). The BoLA-1*023:01 molecule (25 nM) and bovine β2m molecule (150 nM) were incubated in a 96-well plate with Tp9_67–75 (Muguga, G1 to A9, or V2 to V9) peptides (Mimotopes, purity: 95%) at various peptide concentrations ranging from 0 to 40 μM. After an incubation of 48 h at 18°C, the complexes were transferred to another 96-well plate precoated with streptavidin (catalog number [cat #] 436014; Nunc), which captures biotinylated heavy chains, and incubated for 3 h at 4°C. After washing, the W6/32 mAb (cat # SC-32235; Santa Cruz Biotechnology, TX), which binds to a monomorphic epitope on β2m, but only when it is incorporated in p-MHC class I complexes, was added for 1 h at 4°C. After washing, anti-mouse IgG coupled to peroxidase (cat # A9917-1ML; Sigma-Aldrich) was added to the plate followed by incubation for an hour at room temperature and further rounds of washes. Colorimetric change was performed by adding the TMB Plus2 “Ready to Use” Substrate (cat # 4395H; Kem En Tec) for 10 min at room temperature. The reaction was stopped by adding H2SO4 (0.3 M), and OD was measured using a Synergy HT ELISA plate reader (BioTek) at 450 nm. Kd values were determined by performing a nonlinear regression curve fit (One-Site Specific Binding) with GraphPad Prism (version 6).
# Statistical analyses of data were performed with GraphPad Prism version 6 software. To determine the Kd, binding, and half-life values, we performed a nonlinear regression curve fit (One-Site, Specific binding). R^2 values and confidence intervals were generated to assess curve fit and differences between Kd values. When comparing data generated with the ELISPOT assay with a single peptide concentration, we performed a one-way ANOVA with Dunnett’s correction for multiple comparison. When comparing data generated with the ELISPOT assay with varying peptide concentrations, we performed a two-way ANOVA with Dunnett’s correction for multiple comparison (main column effect). All datasets were compared with the data obtained with the Tp9_67–75 Muguga epitope. All experiments were repeated twice using duplicate measurements.
# [2] = molecular target: BoLA-1*023:01 MHC class I molecule with bovine β2-microglobulin (bovine) (UniProt P01888); assay: ELISA
# CTL 4003 = assay: IFN-γ ELISPOT with Tp9-specific CTL line 4003; format: cell-based, cattle; details: Fig. 3A; alanine/glycine-substituted peptides; 2.5 × 10^4 CD8+ cells/well, 20 h 37°C; reduced = SFU >15% lower than Tp9_67–75
# From the text: as §1, with “Cells were maintained in RPMI 1640 culture medium (Sigma-Aldrich) containing 10% heat-inactivated FCS (Life Technologies), 2 mM L-glutamine (Sigma-Aldrich), 1 mg/ml gentamicin (Carl-Roth), 100 UI/ml penicillin (Sigma-Aldrich), 100 mg/ml streptomycin (Sigma-Aldrich), 2-ME (BDH, final concentration: 50 μM ([39]); a detailed description of our protocols can be found in Ref. [40]).” left out, “Cells were incubated at 37°C in a 5% CO2 humidified atmosphere. Both CTLs recognize the Tp9 Ag. CTL clone 8 was derived from the CTL 495 by limiting dilution.” left out
# IFN-γ ELISPOT assay was performed as previously described ([34]). […] Release of IFN-γ was monitored with primary rabbit polyclonal anti-bovine IFN-γ Ab (Sigma-Aldrich, St. Louis, MO, USA) and secondary alkaline phosphatase–conjugated monoclonal anti-rabbit IgG (cat # A2556; Sigma-Aldrich, St. Louis, MO). […]
# [3] = molecular target: BoLA-1*023:01 MHC class I molecule with bovine β2-microglobulin (bovine) (UniProt P01888); assay: ELISA; remark: listed apart in the source
substance,measurement,setting,value
"AKFPGMKK [Tp9_67–74, 8-mer Tp9 peptide with 2 aa deleted at the C-terminal end]","IFN-γ ELISPOT stimulation of CTL 495, in words",CTL 495,capacity to stimulate
same,"Peptide binding to BoLA-1*023:01 (folding in ELISA), in words",[1],showed binding
"AKFPGMKKSK [Tp9_67–76, 10-mer peptide from the T. parva (Muguga) Tp9 Ag]","IFN-γ ELISPOT stimulation of CTL 495, in words",CTL 495,capacity to stimulate
same,"Peptide binding to BoLA-1*023:01 (folding in ELISA), in words",[1],showed binding
BoLA-1*023:01 control peptide,Kd,[2],0.00694 µM
"FPGMKKSK [Tp9_69–76, Tp9 peptide with 2 aa deleted at the N-terminal end]","Peptide binding to BoLA-1*023:01 (folding in ELISA), in words",[1],no folding can be measured
"KFPGMKKSK [Tp9_68–76, Tp9 peptide with 1 aa deleted at the N-terminal end]","Peptide binding to BoLA-1*023:01 (folding in ELISA), in words",[1],no folding can be measured
Tp9A2 peptide (Tp9_(67–75) Muguga with alanine at position 2),Kd,[2],0.192 µM
Tp9A3 peptide (Tp9_(67–75) Muguga with alanine at position 3),Kd,[2],0.0862 µM
Tp9A4 peptide (Tp9_(67–75) Muguga with alanine at position 4),Kd,[2],0.028 µM
Tp9A5 peptide (Tp9_(67–75) Muguga with alanine at position 5),Kd,[2],0.023 µM
Tp9A6 peptide (Tp9_(67–75) Muguga with alanine at position 6),Kd,[2],0.0166 µM
Tp9A7 peptide (Tp9_(67–75) Muguga with alanine at position 7),Kd,[2],0.0101 µM
Tp9A8 peptide (Tp9_(67–75) Muguga with alanine at position 8),Kd,[2],0.00258 µM
Tp9A9 peptide (Tp9_(67–75) Muguga with alanine at position 9),Kd,[2],0.015 µM
Tp9A9: Tp9_67–75 Muguga with alanine substitution at position 9 (AKFPGMKKA),"IFN-γ ELISPOT response of CTL 495 vs Tp9_67–75 Muguga, in words",CTL 495,enhanced stimulation
same,"IFN-γ ELISPOT response of CTL 4003 vs Tp9_67–75 Muguga, in words",CTL 4003,enhanced stimulation
same,Kd,"[1]; Fig. 2 lower panel, alanine-substituted Tp9_67–75",0.015 µM
Tp9G1 peptide (Tp9_(67–75) Muguga with glycine at position 1),Kd,[2],0.0134 µM
Tp9G1: Tp9_67–75 Muguga with glycine at position 1 (GKFPGMKKS),"IFN-γ ELISPOT response of CTL 495 vs Tp9_67–75 Muguga, in words",CTL 495,enhanced stimulation
same,"IFN-γ ELISPOT response of CTL 4003 vs Tp9_67–75 Muguga, in words",CTL 4003,enhanced stimulation
same,Kd,"[1]; Fig. 2 upper panel, alanine/glycine-substituted Tp9_67–75",0.0134 µM
Tp9_(67–75) Muguga epitope peptide,Kd,[2],0.0139 µM
same,Kd,[3],0.0297 µM
